Results published in patent US11957783B2, “Topical immunosensitizers to treat viral and fungal infections” (Squarex, LLC, priority 2018, dated 2024).
Values joined by “and” are separate entries in the source; they are usually repeats but may differ in a detail not shown here. Equal entries are not always repeated. Marks after values point to notes of the source that are not given here.

Test system: herpes labialis outbreak
Experiment: Clinical trial of herpes labialis outbreaks after sensitization dose (Example 2)
Format: in vivo, human
Settings: for Average days to first outbreak after the sensitization dose: 120 days used if no outbreak in 120 days
Method: The median time to the next outbreak for the placebo group was 40 days vs more than 122 days for the 2.0% SADBE group, which difference was highly significant (P=0.009) (Palli 2017). SADBE is a topical immunosensitizer that induces a delayed-type hypersensitivity response and is commonly used in the treatment of verruca vulgaris and alopecia areata (Lee 1999; Silverberg 2000, Rokhshar 1998). […]
(p<0.05). The average days to the first outbreak after the sensitization dose was also measured. […] The A: placebo, 0% SADBE in DMSO.

With `CCCCOc1c(OCCCC)c(=O)c1=O` [2% SADBE] the “Persons having an outbreak within X days after the sensitization dose” value (from here on “Persons having an outbreak within X days”) (30 days, group B) was 2 (of 16), the “Persons having an outbreak within X days” value (30 days, group C) was 3 (of 15) and the “Persons having an outbreak within X days” value (30 days, groups B + C) was 5 (of 31). The “Persons having an outbreak within X days” value (45 days, group B) was 4 (of 16), the “Persons having an outbreak within X days” value (45 days, group C) was 4 (of 15) and the “Persons having an outbreak within X days” value (45 days, groups B + C) was 8 (of 31). For the same compound, the “Persons having an outbreak within X days” value (60 days, group B) was 5 (of 16), the “Persons having an outbreak within X days” value (60 days, group C) was 4 (of 15) and the “Persons having an outbreak within X days” value (60 days, groups B + C) was 9 (of 31). For the same compound, the “Persons having an outbreak within X days” value (<120 days, group B) was 6 (of 16), the “Persons having an outbreak within X days” value (<120 days, group C) was 4 (of 15) and the “Persons having an outbreak within X days” value (<120 days, groups B + C) was 10 (of 31). For the same compound, the “Days to first new outbreak after sensitization dose on upper arm” value (each patient) was 18 days and 34 days and 37 days and 41 days and 50 days and 80 days and 91 days and >120 days (19×) and 14 days (2×) and 15 days, the “Average days to first outbreak after the sensitization dose” value (“Average days to first outbreak” for short) (group B) was 88.5 days and the “Average days to first outbreak” value (group C) was 94.7 days. The “Average days to first outbreak” value (groups B + C) was 91.5* days and the “Days to first new outbreak after sensitization dose on upper arm, median” value (treatment group) was greater than 120 days.
